Results reported in ChEMBL document CHEMBL1201862, “PubChem BioAssay data set” (2004).
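Cells were grown in 96-well plates and exposed to each compound for 48 hours at five concentrations; endpoints were interpolated linearly between bracketing concentrations, or set to the highest concentration if not reached. GI50 marks 50% less growth.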 Calls of active or inactive are those of the source. Cut-off read from the data, not from the text of the source: active = GI50 up to about 1.1 µM and inactive = higher.

Key:
Test in all cases: growth of human tumour cells (NCI), 48 h
[1] = system: UO-31
[2] = system: SNB-19
[3] = system: T47D
[4] = system: RXF 393
[5] = system: SK-MEL-5
[6] = system: SF-268
[7] = system: SK-MEL-2
[8] = system: COLO 205
[9] = system: NCI-H23
[10] = system: CCRF-CEM
[11] = system: OVCAR-5
[12] = system: TK-10
[13] = system: SR
[14] = system: SF-295
[15] = system: HT-29
[16] = system: 786-0
[17] = system: SK-OV-3
[18] = system: K562
[19] = system: SF-539
[20] = system: MDA-MB-231

| Compound | GI50 [1] | GI50 [2] | GI50 [3] | GI50 [4] | GI50 [5] | GI50 [6] | GI50 [7] | GI50 [8] | GI50 [9] | GI50 [10] | GI50 [11] | GI50 [12] | GI50 [13] | GI50 [14] | GI50 [15] | GI50 [16] | GI50 [17] | GI50 [18] | GI50 [19] | GI50 [20] |
| --- | --- | --- | --- | --- | --- | --- | --- | --- | --- | --- | --- | --- | --- | --- | --- | --- | --- | --- | --- | --- |
| Cc1nnc(N)nc1/C=C\c1ccc(N(C)C)cc1 | 3.18 µM (inactive) | 15.2 µM (inactive) | > 24.6 µM (inactive) | > 40.1 µM (inactive) | 18.5 µM (inactive) | > 34.2 µM (inactive) | 39.8 µM (inactive) | > 29.7 µM (inactive) | 7.01 µM (inactive) | 10.3 µM (inactive) | > 86.3 µM (inactive) | > 37.6 µM (inactive) | 6.24 µM (inactive) | > 41.2 µM (inactive) | 8.83 µM (inactive) | > 26.7 µM (inactive) | > 29.4 µM (inactive) | 86.9 µM (inactive) |  |  |
| COC(=O)C(=O)CC(=O)c1cccc(OC)c1 | > 100 µM (inactive) | > 100 µM (inactive) | > 100 µM (inactive) | > 100 µM (inactive) | > 100 µM (inactive) | > 100 µM (inactive) |  | > 100 µM (inactive) | > 100 µM (inactive) | > 100 µM (inactive) | > 100 µM (inactive) | 78.3 µM (inactive) |  | > 100 µM (inactive) | > 100 µM (inactive) | > 100 µM (inactive) | > 100 µM (inactive) | > 100 µM (inactive) | > 100 µM (inactive) | > 100 µM (inactive) |
| COc1ccc2c(c1)C1Oc3ccccc3CC1(O)CO2 (centres undefined) | > 100 µM (inactive) |  | > 100 µM (inactive) |  | > 100 µM (inactive) | > 100 µM (inactive) | > 100 µM (inactive) | > 100 µM (inactive) | > 100 µM (inactive) | > 100 µM (inactive) | > 100 µM (inactive) | > 100 µM (inactive) | > 100 µM (inactive) | > 100 µM (inactive) | > 100 µM (inactive) | > 100 µM (inactive) | > 100 µM (inactive) | > 100 µM (inactive) | > 100 µM (inactive) | > 100 µM (inactive) |
| Cc1ccc(S(=O)(=O)N2CCSCCSCCSCCN(S(=O)(=O)c3ccc(C)cc3)CC2)cc1 | > 100 µM (inactive) | > 100 µM (inactive) | > 100 µM (inactive) | > 100 µM (inactive) | > 100 µM (inactive) | > 100 µM (inactive) | > 100 µM (inactive) | > 100 µM (inactive) | > 100 µM (inactive) |  | > 100 µM (inactive) | > 100 µM (inactive) |  | > 100 µM (inactive) | > 100 µM (inactive) | > 100 µM (inactive) | > 100 µM (inactive) | > 100 µM (inactive) | > 100 µM (inactive) | > 100 µM (inactive) |
| CC(C)(C)C1CCC2c3c([nH]c4ccccc34)C3C(=O)N(c4ccccc4[N+](=O)[O-])C(=O)C3C2C1 (centres undefined) | 20.4 µM (inactive) | 19.3 µM (inactive) |  | 6.65 µM (inactive) | 13.5 µM (inactive) | > 10 µM (inactive) | 14.9 µM (inactive) | 10.5 µM (inactive) | 8.34 µM (inactive) | 12.6 µM (inactive) | 16.9 µM (inactive) | 17.7 µM (inactive) | 9.64 µM (inactive) | 12.3 µM (inactive) | 4.32 µM (inactive) | 12.7 µM (inactive) | 37.5 µM (inactive) | 11.9 µM (inactive) | 21.5 µM (inactive) | 10.6 µM (inactive) |
| O=c1c2ccccc2c2c1c1c3ccccc3c(=O)c1c1c3ccccc3c(=O)c21 | > 100 µM (inactive) | > 100 µM (inactive) | > 100 µM (inactive) |  | > 100 µM (inactive) | > 100 µM (inactive) | > 100 µM (inactive) | > 100 µM (inactive) | > 100 µM (inactive) | > 100 µM (inactive) | > 100 µM (inactive) | > 100 µM (inactive) | > 100 µM (inactive) | > 100 µM (inactive) | > 100 µM (inactive) | > 100 µM (inactive) | > 100 µM (inactive) | > 100 µM (inactive) | > 100 µM (inactive) | > 100 µM (inactive) |
| CN1CN(c2ccccc2)C2(CCN(CCc3csc4ccccc34)CC2)C1=O | 1.8 µM (inactive) | 20.2 µM (inactive) | 18.3 µM (inactive) | 12.6 µM (inactive) | 17.5 µM (inactive) | 28.8 µM (inactive) |  | 14.3 µM (inactive) | 17.4 µM (inactive) | 12.3 µM (inactive) | 11.9 µM (inactive) | 14 µM (inactive) | 11.7 µM (inactive) |  | 4.04 µM (inactive) | 14.5 µM (inactive) | 25.9 µM (inactive) | 14.8 µM (inactive) | 11 µM (inactive) | > 10 µM (inactive) |
| COc1ccc2c3c1O[C@H]1C(=O)C=CC4(n5[nH]c(=O)n(-c6ccccc6)c5=O)C(C2)N(C)CCC314 (some centres undefined) | > 100 µM (inactive) | > 100 µM (inactive) | > 100 µM (inactive) |  | > 100 µM (inactive) | > 100 µM (inactive) | > 100 µM (inactive) | > 100 µM (inactive) | > 100 µM (inactive) | > 100 µM (inactive) | > 100 µM (inactive) | > 100 µM (inactive) | > 100 µM (inactive) | > 100 µM (inactive) | > 100 µM (inactive) | > 100 µM (inactive) | > 100 µM (inactive) | > 100 µM (inactive) | > 100 µM (inactive) | > 100 µM (inactive) |
| CC(C)NC(=O)OCCN=C1c2ccccc2C(Br)C(Br)c2ccccc21 (centres undefined) | 4.21 µM (inactive) | 16.1 µM (inactive) | 3.25 µM (inactive) | 2.87 µM (inactive) | 7.19 µM (inactive) | 14.4 µM (inactive) | 23.7 µM (inactive) | 5.13 µM (inactive) | 15.6 µM (inactive) | 0.46 µM (active) | 12 µM (inactive) | 5.87 µM (inactive) |  | 19 µM (inactive) | 4.7 µM (inactive) | 4.14 µM (inactive) | 26.1 µM (inactive) | 1.06 µM (active) | 4.02 µM (inactive) | 11.5 µM (inactive) |
| CS/C(=N\S(=O)(=O)c1ccc(Cl)cc1)NCCCCN/C(=N/S(=O)(=O)c1ccc(Cl)cc1)SC | > 100 µM (inactive) | > 100 µM (inactive) | > 100 µM (inactive) |  |  | 32.5 µM (inactive) | > 100 µM (inactive) | > 100 µM (inactive) |  | > 100 µM (inactive) | > 100 µM (inactive) | > 100 µM (inactive) | > 100 µM (inactive) | > 100 µM (inactive) | > 100 µM (inactive) | 44.5 µM (inactive) |  | > 100 µM (inactive) | > 100 µM (inactive) | > 100 µM (inactive) |
| CS/C(=N\C#N)NC1CC(n2cc(C)c(=O)[nH]c2=O)OC1CO (centres undefined) | > 100 µM (inactive) | > 100 µM (inactive) | > 100 µM (inactive) | > 100 µM (inactive) | > 100 µM (inactive) | > 100 µM (inactive) | > 100 µM (inactive) | > 100 µM (inactive) | > 100 µM (inactive) | > 100 µM (inactive) | > 100 µM (inactive) | > 100 µM (inactive) |  | > 100 µM (inactive) | > 100 µM (inactive) | > 100 µM (inactive) | > 100 µM (inactive) | > 100 µM (inactive) | > 100 µM (inactive) | > 100 µM (inactive) |
| NC1=CN(Cc2ccccc2)C2=N/C(=C\c3ccccc3)C(=O)N12 | 65.9 µM (inactive) | > 100 µM (inactive) | > 100 µM (inactive) | > 100 µM (inactive) | 66.5 µM (inactive) | > 100 µM (inactive) | > 100 µM (inactive) | > 100 µM (inactive) | > 100 µM (inactive) | 50 µM (inactive) | > 100 µM (inactive) | > 100 µM (inactive) |  | > 100 µM (inactive) | > 100 µM (inactive) | > 100 µM (inactive) | > 100 µM (inactive) | 48.8 µM (inactive) | > 100 µM (inactive) | > 100 µM (inactive) |
| CC1C2(C)OCC(C#N)(C(=N)O2)C1(C#N)C#N (centres undefined) | 36.2 µM (inactive) | 43.5 µM (inactive) | 12.6 µM (inactive) | 27.4 µM (inactive) | 11.3 µM (inactive) | 22.8 µM (inactive) | 14.4 µM (inactive) | 14.7 µM (inactive) | 29.3 µM (inactive) | 22.8 µM (inactive) | 29.1 µM (inactive) | 37.1 µM (inactive) |  | 78 µM (inactive) | 15.8 µM (inactive) | 21.3 µM (inactive) | > 100 µM (inactive) | 32.8 µM (inactive) | 23.1 µM (inactive) | 17.9 µM (inactive) |
| C[N+]1(C)C(c2ccccc2)C(=O)O[B@-]1(F)c1ccccc1 (some centres undefined) | > 100 µM (inactive) | > 100 µM (inactive) | > 100 µM (inactive) |  | > 100 µM (inactive) | > 100 µM (inactive) |  | > 100 µM (inactive) | > 100 µM (inactive) | > 100 µM (inactive) | > 100 µM (inactive) | > 100 µM (inactive) | > 100 µM (inactive) | > 100 µM (inactive) | > 100 µM (inactive) | > 100 µM (inactive) | > 100 µM (inactive) | > 100 µM (inactive) |  | > 100 µM (inactive) |
| CCCc1cc(COC)c(C#N)c(O)n1 | > 100 µM (inactive) | > 100 µM (inactive) | > 100 µM (inactive) | > 100 µM (inactive) | > 100 µM (inactive) | > 100 µM (inactive) |  | > 100 µM (inactive) | > 100 µM (inactive) | > 100 µM (inactive) | > 100 µM (inactive) | > 100 µM (inactive) |  | > 100 µM (inactive) | > 100 µM (inactive) | > 100 µM (inactive) | > 100 µM (inactive) | > 100 µM (inactive) | 65 µM (inactive) | > 100 µM (inactive) |
